Measured values reported in patent publication US11465986B2, “Crystal form of c-MET inhibitor and salt form thereof and preparation method therefor” (FUJIAN AKEYLINK BIOTECHNOLOGY CO., LTD., priority 2018, dated 2022).

How the values were obtained:
[1] = Liver microsome metabolism, mouse; type: in vitro ADME
[2] = Liver microsome metabolism, rat; type: in vitro ADME
[3] = test system: human liver cancer MHCC97H cell xenograft tumor; assay: In vivo efficacy, MHCC97H subcutaneous xenograft tumor model; design: species or system BALB/c nude mice; details: for tumor volume (24th day): 24th day after administration, average value±SEM; for T/C / TGI: based on the tumor volume on the 24th day after administration
Experimental: MHCC97H cells were cultured in a single layer in-vitro. The culturing condition was RPMI1640 medium supplemented with 10% heat-inactivated fetal bovine serum, 1% penicillin-streptomycin double antibody under 37° C., 5% carbon dioxide. Digestion and passage treatment with trypsin-EDTA was done twice a week. When the cells were in the exponential growing phase, the cells were collected, counted and inoculated.
BALB/c nude mice, male. 6-8 weeks old, weighting 18-22 g.
0.2 mL of a cell suspension containing 5×10^6 MHCC97H was subcutaneously inoculated into the right back of each mouse. Drugs were administered by group after the average tumor volume reached approximately 172 mm^3.
Investigation of whether the tumor growth was inhibited, delayed or cured. The diameters of the tumor were measured twice a week using a vernier caliper. The formula for calculating the tumor volume is V=0.5a×b^2, and a and b represent the long and short diameters of the tumor respectively. The antitumor effect (TGI) of the compound was evaluated by T-C (days) and TIC (%).
Remark: a. average value±SEM; b. p value was calculated based on the tumor volume.

[4] = Liver microsome metabolism, human; type: in vitro ADME
MHCC97-H cells [5] = details: read-out: IC50 on MHCC97-H cells; background section; cited from earlier work
MHCC97-H cells [6] = test system: MHCC97-H cells
Experimental: The cell plates were incubated in a carbon dioxide incubator for 3 days.

[7] = liver microsomes, read-out: t1/2 by liver microsome metabolism

## CN1CCC(COc2cnc(-c3cccc(Cn4nc(-c5cccc(C#N)c5)ccc4=O)c3)nc2)CC1 [Tepotinib, reference compound]
[1]; [7]
  half-life: 12.4 min
[2]; [7]
  half-life: 10.5 min
[3]
  tumor volume (24th day): 255 ± 5 mm^3
  T/C: 12.4%
  TGI: 95.6%
[4]; [7]
  half-life: 48.3 min
MHCC97-H cells [5]
  IC50: 6.2 nM

## C[C@H](c1cccc(-c2ncc(OCC3CCN(C)CC3)cn2)c1)n1cc(-c2cc(C#N)ccn2)cc(F)c1=O [compound represented by formula (I)]
[1]
  t1/2 by liver microsome metabolism: 49.1 min
[2]
  t1/2 by liver microsome metabolism: 36.5 min
[3]
  tumor volume (24th day): 153 ± 12 mm^3
  T/C: 7.4%
  TGI: 101.0%
[3]; MHCC97H liver cancer cell subcutaneous xenograft tumor model
  Tumor inhibitory effect compared with tepotinib, in words: better tumor inhibitory effect than tepotinib
[4]
  t1/2 by liver microsome metabolism: 62.1 min
MHCC97-H cells [6]
  Inhibitory activity on MHCC97H cell, in words: good inhibitory activity
